The target in one experiment is HDAC2 (Homo sapiens, UniProt Q92769). Briefly: In vitro fluorescence-based HDAC inhibition assay (Reaction Biology). Conditions: read-out: IC50 HDAC2; experiment performed once.
Experiment [1] relates to VM-CUB1 and UM-UC-3 cells. In words: Nuclear morphology analysis (DAPI, rhodamine phalloidin). It counts as cell-based, human. Particulars: 19i 2 μM, 24 or 48 h. On the procedure: As previously described, after fixation with 4% formaldehyde, cells were permeabilized (0.3% Triton X100 in PBS, 10 min, RT), blocked (1% BSA in PBS, 30 min, RT), and subsequently incubated for 1 h at RT with 14 nM Rhodamine Phalloidin in blocking solution. Following counter-staining of nuclei with 1 μg/ml DAPI (4′,6-diamidino-2-phenylindole), cells were mounted with fluorescence mounting medium (DAKO, Glostrup, Denmark). For each treatment option and sample, 500 cells were counted and the amount of mitosis and micronuclei was quantified using a Nikon Eclipse 400 microscope (Nikon, Tokyo, Japan).

Experiment [2] relates to UCCs VM-CUB1, UM-UC-3, and 639-V. In words: Western blot of cleaved PARP. It is filed as cell-based, human. Particulars: 19i 2 μM, 48 h; especially in 639-V. On the procedure:
Total protein extraction, purification of histones, and Western blot analysis were performed as previously described. Briefly, cells were incubated for 30 min on ice in RIPA-buffer (150 mM NaCl, 1% Triton X-100, 0.5% desoxycholate, 1% Nonidet P-40, 0.1% SDS, 1 mM EDTA, 50 mM TRIS (pH 7.6)) containing 10 μl/ml protease inhibitor cocktail (#P-8340, Sigma Aldrich, St. Louis, MO). Histones were extracted for detection of histone H3 and H4 acetylation by a modified published protocol employing sulfuric acid extraction and TCA-precipitation. Concentrations of total protein and histones were determined by BCA protein assay (Thermo Fisher Scientific, Carlsbad, CA). Subsequently, total cell proteins (15 μg) or extracted histones (2 μg) were separated by SDS-PAGE (total proteins 10–12% gels, histones 15% gels), transferred to PVDF membranes (Merck Millipore, Berlin, Germany), and were incubated with primary antibodies (at RT for 1 h or 4 °C overnight, see Additional file 3: Table S2) following blocking with 5% non-fat milk or BSA (bovine serum albumin) in TBST (150 mM NaCl, 10 mM TRIS, pH 7.4 and 0.1% Tween-20). […]

For another experiment, the target named is HDAC11 (Homo sapiens, UniProt Q96DB2). Briefly: In vitro fluorescence-based HDAC inhibition assay (Reaction Biology). Particulars: read-out: IC50 HDAC11; experiment performed once.

By IC50 is commonly meant the point on the concentration scale where inhibition reaches its midpoint.

The structures appear in SMILES notation.

Sequence of HDAC2 (Q92769 whole entry): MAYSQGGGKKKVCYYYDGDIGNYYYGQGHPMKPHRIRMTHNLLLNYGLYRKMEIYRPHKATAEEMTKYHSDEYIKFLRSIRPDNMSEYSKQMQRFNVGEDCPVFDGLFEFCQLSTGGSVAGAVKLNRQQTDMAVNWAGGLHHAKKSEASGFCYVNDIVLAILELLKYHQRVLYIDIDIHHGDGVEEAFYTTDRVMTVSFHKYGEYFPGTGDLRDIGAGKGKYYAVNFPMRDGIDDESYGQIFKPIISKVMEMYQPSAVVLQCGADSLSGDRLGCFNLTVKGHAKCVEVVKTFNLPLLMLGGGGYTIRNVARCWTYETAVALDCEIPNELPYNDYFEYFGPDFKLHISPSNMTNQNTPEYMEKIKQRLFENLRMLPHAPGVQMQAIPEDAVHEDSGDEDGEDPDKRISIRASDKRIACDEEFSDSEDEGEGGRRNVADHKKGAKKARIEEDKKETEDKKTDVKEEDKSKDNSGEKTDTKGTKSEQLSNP
Sequence of HDAC11 (Q96DB2 whole entry): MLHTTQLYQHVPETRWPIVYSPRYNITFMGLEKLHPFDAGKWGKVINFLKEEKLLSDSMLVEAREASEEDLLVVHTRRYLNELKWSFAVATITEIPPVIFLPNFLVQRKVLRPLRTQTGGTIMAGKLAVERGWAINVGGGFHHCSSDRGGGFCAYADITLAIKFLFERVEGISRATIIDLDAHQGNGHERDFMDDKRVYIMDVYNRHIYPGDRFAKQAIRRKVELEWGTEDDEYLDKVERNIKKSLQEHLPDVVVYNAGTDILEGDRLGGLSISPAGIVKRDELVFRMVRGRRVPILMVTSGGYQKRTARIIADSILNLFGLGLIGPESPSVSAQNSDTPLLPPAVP

`Cc1cc(C)cc(C(=O)NOCCCCCC(=O)NO)c1` [19i]: the IC50 at HDAC2 is 0.402 µM; at HDAC11 it was 109 µM. In addition, the number of mitoses result in experiment [1] is “decreased sharply”. The “percentage of cells with micronuclei” value in experiment [1] is “increased”. Moreover, in experiment [2], the PARP cleavage result was “augmented”.

The values are drawn from paper PMC6069857, “Effects of novel HDAC inhibitors on urothelial carcinoma cells” (Clinical Epigenetics, 2018).
